Experimental data as given in PMC12935787, “Clinical pharmacokinetics and pharmacometabolomics of Andrographis paniculata capsules: Bridging drug disposition and metabolic response to precision medicine” (Naunyn-Schmiedeberg's Archives of Pharmacology, 2025).
Where two headings read alike, the source gives them in different places.

Test: Clinical pharmacokinetics, plasma LC-MS/MS after single oral dose of AP capsules
Type: in vivo, human (healthy volunteers)
Conditions: for concentration at 0 h / concentration at 0.5 h / concentration at 1 h / concentration at 1.5 h / concentration at 2 h / concentration at 2.5 h / concentration at 3 h / concentration at 3.5 h / concentration at 4 h / concentration at 5 h / concentration at 6 h / concentration at 8 h / concentration at 10 h / concentration at 12 h / concentration at 24 h: oral, 2000 mg; for concentration at 0 h / concentration at 0.5 h / concentration at 1 h / concentration at 1.5 h / concentration at 2 h / concentration at 2.5 h / concentration at 3 h / concentration at 3.5 h / concentration at 4 h / concentration at 5 h / concentration at 6 h / concentration at 8 h / concentration at 10 h / concentration at 12 h / concentration at 24 h / Mean concentration: 2000 mg AP capsules
Protocol: The protocol was published (Tee et al. [2022]).
Seven calibrators ranging from 1, 2, 5,10, 20, 50, and 100 ng mL^−1 were prepared. Frozen plasma was thawed, vortexed-mixes, and processed via protein precipitation: 50 µL plasma plus 100 µL 0.01% ammonia in methanol were vortexed (20 s), centrifuged (14800 rpm, 5 min) and […] supernatant was transferred to 2 mL vials with inserts. LC–MS/MS injection volume: 10 µL. The separation used a Phenomenex Gemini-NX C18 column (150 × 2.1 mm, 5 μm) with 0.01% ammonia (A) and acetonitrile/methanol (1:1, B) as mobile phases (0.30 mL min^-1). The gradient program: 40% B (0 min), linear increase to 95% B (3 min), hold to 5 min, sharp decrease to 10% B (5.01 min), hold to 7 min, return to 40% B (7.01 min), and re-equilibration to 10 min. Mass detection employed an LCMS-8060NX triple quadrupole with heated ESI in negative mode, monitoring specific MRM transitions: andrographolide (349.3 → 331.2/287.1), 14-deoxyandrographolide (331.2 → 108.0/301.1), and neoandrographolide (479.1 → 317.4/161.1).
Pharmacokinetic parameters were determined from plasma samples (5 subjects, 15 time points) analyzed via LC–MS/MS (Shimadzu 8060NX). […] Specific MRM transitions for andrographolide, 14-deoxyandrographolide, and neoandrographolide in plasma samples of subjects are illustrated in Figure S3. […] The dose-dependent concentration–time curves, pharmacokinetics profiles (Fig. 2a, b and c) and comprehensive individual PK data (Table S4) provide a foundation for developing personalized AP dosing regimens, supporting its precision medicine potential.

[1] = human, plasma, 2000 mg AP capsules oral, fasting, n=5

SMILES: C=C1CC[C@@H]2[C@](C)(CO)[C@H](O)CC[C@@]2(C)[C@@H]1C/C=C1/C(=O)OC[C@H]1O [andrographolide]
- concentration at 0 h (human, plasma, S1, 0.00 h, read-out: Plasma concentration): 0 ng/mL
- concentration at 0.5 h (human, plasma, S1, 0.50 h, read-out: Plasma concentration): 3.76 ng/mL
- concentration at 1 h (human, plasma, S1, 1.00 h, read-out: Plasma concentration): 2.41 ng/mL
- concentration at 1.5 h (human, plasma, S1, 1.50 h, read-out: Plasma concentration): 6.36 ng/mL
- concentration at 2 h (human, plasma, S1, 2.00 h, read-out: Plasma concentration): 5.31 ng/mL
- concentration at 2.5 h (human, plasma, S1, 2.50 h, read-out: Plasma concentration): 2.17 ng/mL
- concentration at 3 h (human, plasma, S1, 3.00 h, read-out: Plasma concentration): 3.86 ng/mL
- concentration at 3.5 h (human, plasma, S1, 3.50 h, read-out: Plasma concentration): 2.81 ng/mL
- concentration at 4 h (human, plasma, S1, 4.00 h, read-out: Plasma concentration): 0 ng/mL
- concentration at 5 h (human, plasma, S1, 5.00 h, read-out: Plasma concentration): 0 ng/mL
- concentration at 6 h (human, plasma, S1, 6.00 h, read-out: Plasma concentration): 0 ng/mL
- concentration at 8 h (human, plasma, S1, 8.00 h, read-out: Plasma concentration): 0 ng/mL
- concentration at 10 h (human, plasma, S1, 10.00 h, read-out: Plasma concentration): 0 ng/mL
- concentration at 12 h (human, plasma, S1, 12.00 h, read-out: Plasma concentration): 0 ng/mL
- concentration at 24 h (human, plasma, S1, 24.00 h, read-out: Plasma concentration): 0 ng/mL
- concentration at 0 h (human, plasma, S2, 0.00 h, read-out: Plasma concentration): 0 ng/mL
- concentration at 0.5 h (human, plasma, S2, 0.50 h, read-out: Plasma concentration): 0 ng/mL
- concentration at 1 h (human, plasma, S2, 1.00 h, read-out: Plasma concentration): 3.98 ng/mL
- concentration at 1.5 h (human, plasma, S2, 1.50 h, read-out: Plasma concentration): 5.56 ng/mL
- concentration at 2 h (human, plasma, S2, 2.00 h, read-out: Plasma concentration): 5.07 ng/mL
- concentration at 2.5 h (human, plasma, S2, 2.50 h, read-out: Plasma concentration): 3.13 ng/mL
- concentration at 3 h (human, plasma, S2, 3.00 h, read-out: Plasma concentration): 4.68 ng/mL
- concentration at 3.5 h (human, plasma, S2, 3.50 h, read-out: Plasma concentration): 0 ng/mL
- concentration at 4 h (human, plasma, S2, 4.00 h, read-out: Plasma concentration): 0 ng/mL
- concentration at 5 h (human, plasma, S2, 5.00 h, read-out: Plasma concentration): 0 ng/mL
- concentration at 6 h (human, plasma, S2, 6.00 h, read-out: Plasma concentration): 0 ng/mL
- concentration at 8 h (human, plasma, S2, 8.00 h, read-out: Plasma concentration): 0 ng/mL
- concentration at 10 h (human, plasma, S2, 10.00 h, read-out: Plasma concentration): 0 ng/mL
- concentration at 12 h (human, plasma, S2, 12.00 h, read-out: Plasma concentration): 0 ng/mL
- concentration at 24 h (human, plasma, S2, 24.00 h, read-out: Plasma concentration): 0 ng/mL
- concentration at 0 h (human, plasma, S3, 0.00 h, read-out: Plasma concentration): 0 ng/mL
- concentration at 0.5 h (human, plasma, S3, 0.50 h, read-out: Plasma concentration): 39.4 ng/mL
- concentration at 1 h (human, plasma, S3, 1.00 h, read-out: Plasma concentration): 13.8 ng/mL
- concentration at 1.5 h (human, plasma, S3, 1.50 h, read-out: Plasma concentration): 14.2 ng/mL
- concentration at 2 h (human, plasma, S3, 2.00 h, read-out: Plasma concentration): 4.19 ng/mL
- concentration at 2.5 h (human, plasma, S3, 2.50 h, read-out: Plasma concentration): 3.47 ng/mL
- concentration at 3 h (human, plasma, S3, 3.00 h, read-out: Plasma concentration): 0 ng/mL
- concentration at 3.5 h (human, plasma, S3, 3.50 h, read-out: Plasma concentration): 0 ng/mL
- concentration at 4 h (human, plasma, S3, 4.00 h, read-out: Plasma concentration): 0 ng/mL
- concentration at 5 h (human, plasma, S3, 5.00 h, read-out: Plasma concentration): 0 ng/mL
- concentration at 6 h (human, plasma, S3, 6.00 h, read-out: Plasma concentration): 0 ng/mL
- concentration at 8 h (human, plasma, S3, 8.00 h, read-out: Plasma concentration): 0 ng/mL
- concentration at 10 h (human, plasma, S3, 10.00 h, read-out: Plasma concentration): 0 ng/mL
- concentration at 12 h (human, plasma, S3, 12.00 h, read-out: Plasma concentration): 0 ng/mL
- concentration at 24 h (human, plasma, S3, 24.00 h, read-out: Plasma concentration): 0 ng/mL
- concentration at 0 h (human, plasma, S4, 0.00 h, read-out: Plasma concentration): 0 ng/mL
- concentration at 0.5 h (human, plasma, S4, 0.50 h, read-out: Plasma concentration): 0 ng/mL
- concentration at 1 h (human, plasma, S4, 1.00 h, read-out: Plasma concentration): 18.3 ng/mL
- concentration at 1.5 h (human, plasma, S4, 1.50 h, read-out: Plasma concentration): 22.1 ng/mL
- concentration at 2 h (human, plasma, S4, 2.00 h, read-out: Plasma concentration): 12.7 ng/mL
- concentration at 2.5 h (human, plasma, S4, 2.50 h, read-out: Plasma concentration): 5.06 ng/mL
- concentration at 3 h (human, plasma, S4, 3.00 h, read-out: Plasma concentration): 4.2 ng/mL
- concentration at 3.5 h (human, plasma, S4, 3.50 h, read-out: Plasma concentration): 2.09 ng/mL
- concentration at 4 h (human, plasma, S4, 4.00 h, read-out: Plasma concentration): 0 ng/mL
- concentration at 5 h (human, plasma, S4, 5.00 h, read-out: Plasma concentration): 0 ng/mL
- concentration at 6 h (human, plasma, S4, 6.00 h, read-out: Plasma concentration): 0 ng/mL
- concentration at 8 h (human, plasma, S4, 8.00 h, read-out: Plasma concentration): 0 ng/mL
- concentration at 10 h (human, plasma, S4, 10.00 h, read-out: Plasma concentration): 0 ng/mL
- concentration at 12 h (human, plasma, S4, 12.00 h, read-out: Plasma concentration): 0 ng/mL
- concentration at 24 h (human, plasma, S4, 24.00 h, read-out: Plasma concentration): 0 ng/mL
- concentration at 0 h (human, plasma, S5, 0.00 h, read-out: Plasma concentration): 0 ng/mL
- concentration at 0.5 h (human, plasma, S5, 0.50 h, read-out: Plasma concentration): 0 ng/mL
- concentration at 1 h (human, plasma, S5, 1.00 h, read-out: Plasma concentration): 0 ng/mL
- concentration at 1.5 h (human, plasma, S5, 1.50 h, read-out: Plasma concentration): 2.52 ng/mL
- concentration at 2 h (human, plasma, S5, 2.00 h, read-out: Plasma concentration): 3.77 ng/mL
- concentration at 2.5 h (human, plasma, S5, 2.50 h, read-out: Plasma concentration): 3.17 ng/mL
- concentration at 3 h (human, plasma, S5, 3.00 h, read-out: Plasma concentration): 2.38 ng/mL
- concentration at 3.5 h (human, plasma, S5, 3.50 h, read-out: Plasma concentration): 1.59 ng/mL
- concentration at 4 h (human, plasma, S5, 4.00 h, read-out: Plasma concentration): 0.54 ng/mL
- concentration at 5 h (human, plasma, S5, 5.00 h, read-out: Plasma concentration): 1.62 ng/mL
- concentration at 6 h (human, plasma, S5, 6.00 h, read-out: Plasma concentration): 1.12 ng/mL
- concentration at 8 h (human, plasma, S5, 8.00 h, read-out: Plasma concentration): 0 ng/mL
- concentration at 10 h (human, plasma, S5, 10.00 h, read-out: Plasma concentration): 0 ng/mL
- concentration at 12 h (human, plasma, S5, 12.00 h, read-out: Plasma concentration): 0 ng/mL
- concentration at 24 h (human, plasma, S5, 24.00 h, read-out: Plasma concentration): 0 ng/mL
- concentration at 0 h (human, plasma, mean n=5, 0.00 h, read-out: Mean concentration): 0 ng/mL
- concentration at 0.5 h (human, plasma, mean n=5, 0.50 h, read-out: Mean concentration): 8.62 ng/mL
- concentration at 1 h (human, plasma, mean n=5, 1.00 h, read-out: Mean concentration): 7.7 ng/mL
- concentration at 1.5 h (human, plasma, mean n=5, 1.50 h, read-out: Mean concentration): 10.2 ng/mL
- concentration at 2 h (human, plasma, mean n=5, 2.00 h, read-out: Mean concentration): 6.21 ng/mL
- concentration at 2.5 h (human, plasma, mean n=5, 2.50 h, read-out: Mean concentration): 3.4 ng/mL
- concentration at 3 h (human, plasma, mean n=5, 3.00 h, read-out: Mean concentration): 3.02 ng/mL
- concentration at 3.5 h (human, plasma, mean n=5, 3.50 h, read-out: Mean concentration): 1.3 ng/mL
- concentration at 4 h (human, plasma, mean n=5, 4.00 h, read-out: Mean concentration): 0.11 ng/mL
- concentration at 5 h (human, plasma, mean n=5, 5.00 h, read-out: Mean concentration): 0.32 ng/mL
- concentration at 6 h (human, plasma, mean n=5, 6.00 h, read-out: Mean concentration): 0.22 ng/mL
- concentration at 8 h (human, plasma, mean n=5, 8.00 h, read-out: Mean concentration): 0 ng/mL
- concentration at 10 h (human, plasma, mean n=5, 10.00 h, read-out: Mean concentration): 0 ng/mL
- concentration at 12 h (human, plasma, mean n=5, 12.00 h, read-out: Mean concentration): 0 ng/mL
- concentration at 24 h (human, plasma, mean n=5, 24.00 h, read-out: Mean concentration): 0 ng/mL
- AUC(0-inf) [1]: 20.9 ng·h/mL
- AUC(0-t) [1]: 20.7 ng·h/mL
- Cmax [1]: 10.2 ng/mL
- Tmax [1]: 1.5 h
- half-life [1]: 43.2 min
- Mean concentration (mean n=5, 0.00 h): 0 ng/mL
- Mean concentration (mean n=5, 0.50 h): 8.622 ng/mL
- Mean concentration (mean n=5, 1.00 h): 7.6996 ng/mL
- Mean concentration (mean n=5, 1.50 h): 10.145 ng/mL
- Mean concentration (mean n=5, 2.00 h): 6.2104 ng/mL
- Mean concentration (mean n=5, 2.50 h): 3.3999 ng/mL
- Mean concentration (mean n=5, 3.00 h): 3.0233 ng/mL
- Mean concentration (mean n=5, 3.50 h): 1.2987 ng/mL
- Mean concentration (mean n=5, 4.00 h): 0.1073 ng/mL
- Mean concentration (mean n=5, 5.00 h): 0.3249 ng/mL
- Mean concentration (mean n=5, 6.00 h): 0.2247 ng/mL
- Mean concentration (mean n=5, 8.00 h): 0 ng/mL
- Mean concentration (mean n=5, 10.00 h): 0 ng/mL
- Mean concentration (mean n=5, 12.00 h): 0 ng/mL
- Mean concentration (mean n=5, 24.00 h): 0 ng/mL
